{
  "source": "patent US20130236568A1",
  "about": "“PHOSPHAPLATINS HAVING ANTI-ANGIOGENIC, ANTI-METASTATIC, AND PRO-APOPTOTIC PROPERTIES AND USES THEREOF” (Ohio University, priority 2011, published 2013)",
  "key": {"[1]": {"system": "yeast deletion collection", "test": "Genome-wide fitness assay in yeast (pooled deletion strains)", "assay_type": "cell-based", "settings": "for Sensitivity of DNA damage/repair genes (NER, HRR, PRR): phosphaplatins at 200 μM final concentration", "source_text": "The around 6000 strains in the yeast deletion collection can be studied in a single culture by using a microarray to detect the 20 bp DNA “barcodes” or “tags” contained in each strain. Barcode intensities are compared across time-points or across conditions to analyze the relative fitness of each strain. This development of the pooled fitness assay has greatly facilitated the functional annotation of the yeast genome by making genome-wide gene-deletion studies faster and easier, and has led to the development of high throughput methods for studying drug action in yeast. Pooled screens can be used for identifying gene functions, measuring the functional relatedness of gene pairs in order to group genes into pathways, identifying drug targets, and determining a drug's mechanism of action. This process involves five main steps: preparing aliquots of pooled cells, pooled growth, isolation of genomic DNA and PCR amplification of the barcodes, array hybridization (or next generation sequencing), and data analysis.\nThe pooled fitness assay involves five main steps (FIG. 3). First, the deletion collection is grown on solid media in arrayed format and the resulting cells are pooled and frozen to make cell aliquots that will be used for starting growth experiments. Cells are then grown in the desired conditions, typically for 5 to 20 generations. The barcodes from the resulting cell samples are prepared for hybridization by isolation of the genomic DNA and PCR amplification of the barcodes. The barcodes are amplified in two reactions to prevent crosstalk between the uptag and downtag primers. The resulting PCR products are then hybridized to tag arrays with one array needed per cell sample. Data is then analyzed to determine differences in strain representation between pairs of samples.\nTo analyze the genome wide effects of pyrodach-2 and -4, we screened 2 collections of strains, 1200 essential genes as heterozygote deletion mutants (reducing functional gene dose from 2 to 1) and 4800 non-essential genes as complete deletions (reducing functional gene dose from 2 to 0). Both compounds were screened at the highest dose possible (200 μM final concentration) to increase the likelihood of finding compound-specific sensitive strains.\nFitness profiling of pooled deletion strains involves […] main steps: • 1. Strains are first pooled at approximately equal abundance. • 2. The pool is grown competitively in the condition of choice and a control condition. If a gene is sensitive to the treatment condition, the strain carrying this deletion will grow more slowly and become under-represented relative to the control culture (purple strain). Resistant strains will grow faster and become over-represented (not shown). • 3. Genomic DNA is isolated from cells harvested at the end of pooled growth, and barcodes are amplified from the genomic DNA with universal primers. • 4. PCR products are then hybridized to an array that detects the tag sequences, giving tag intensities for the two samples. • 5. The treatment and control sample are then compared to determine the relative fitness of each strain. Note that only the purple strain is described as sensitive to the condition. While the red strain grows more slowly than the blue strain in the treatment, this growth difference in not of interest because it matches that seen in the control."}, "VEGFR2 gene [2]": {"system": "VEGFR2 gene", "test": "Quantitative real-time PCR, VEGFR2 gene expression in A2780/C30 cells", "assay_type": "cell-based, human", "settings": "A2780/C30 (cisplatin-resistant); positive = manifold increase, negative = relative decrease vs untreated cells; cisplatin 7 μM, pyrodach-4 180 μM", "description": "(§1) Evaluations of selected gene expressions in Human Umbilical Vein Endothelial Cells (HUVEC) and Human Ovarian Cancer Cells by quantitative reverse transcriptase polymerase chain reaction (PCR)\n(§2) Quantitative real-time PCR experiments were performed to estimate the expression of a selection of targeted genes. HUVEC cells (Lonza Walkersville, Frederick, Md.) were cultured on 0.1% gelatin-coated petri dishes by following standard protocols recommended by the vendor in a humidified incubator by maintaining 5% CO2 at 37° C. Human epithelial ovarian cancer cells (A2780) and cisplatin-resistant cells (A2780/C30) were cultured in RPMI 1640 with or without cisplatin (7 μM) and pyrodach-4 (180 μM) for 0, 3, 12 and 24 hours. […] HUVECs were treated with or without cisplatin (7 μM) or pyrodach-4 (90 or 180 μM) for various durations ranging from 1 hr. to 6 hrs.\n(§3) Both treated and untreated cancer cells were maintained in RPMI 1640 medium with 10% fetal bovine serum, 2 μmol L-glutamine, 100 units/mL penicillin-streptomycin and 0.25 units/mL insulin solution, at 37° C. with 5% CO2. RNA was isolated from both the treated and untreated cells. […] The quantity and purity of RNA were determined by UV spectroscopy (NanoDrop 2000 Thermo Scientific, Wilmington, Del.). A minimum absorbance ratio index (ratio of the absorbance measured at 260 nm over that at 280 nm) of 1.9 was used as an acceptable purity. […] The target gene was labeled with a blue dye (FAM, absorbance: 494 nm, emission: 518 nm) while the reference gene was tagged with a green dye (VIC, absorbance: 538 nm, emission: 554 nm). The cDNA concentrations were selected such that the threshold cycle (Ct) values for the target genes were between 17 and 32, most sensitive for the fluorescence detection by ABI StepOnePlus™ instrument used for the measurements.\n(§4) The threshold cycle number (Ct), the point at which the fluorescence of the qPCR reaction just exceeds the threshold fluorescence of the detection system, was determined. […]"}, "A2780/C30 cells": {"system": "A2780/C30 cells", "test": "Cell death detection assay with ELISA, A2780/C30 cells", "assay_type": "cell-based, human", "settings": "7 μM cisplatin or 180 μM D4", "method": "In these experiments, ovarian cancer cells were treated with pyrodach-4 in the presence and absence of inhibitors PFT-α (an inhibitor p53) and LY29400 (an inhibitor of PI3K).\nThe different treatment groups from left to right are: control, 7 μM cisplatin, Con+PFT-α, 180 μM D4, 180 μM D4+PFT-α, 180 μM D4+LY294002. Apoptosis was quantified using the Cell Death Detection ELISA from Roche.\nA2780 and A2780/C30 cells were grown in monolayers, trypsinized and suspended in supplemented RPMI 1640 media as described in Example 5. All the treatments on the Fc/A2780 and Fc/A2780/C30 cell samples were carried out in triplicate. The ELISA was performed according to the manufacturer's instructions. Briefly, 50,000 cells were plated for each treatment and the cells were allowed to adhere for 4-6 hours. Cells were then either incubated with media alone (untreated sample) or with pyrodach-4 or cisplatin in the concentrations indicated above. DNA of the treated and untreated cells was assayed for nucleosomal DNA using the ELISA kit (purchased from Roche Diagnostics, Mannheim, Germany). The cells were lysed for 30 minutes using the lysis buffer. After centrifuging, 10% (v/v) supernanant was incubated with anti-histone-biotin and anti-DNA-peroxidase. After two hour incubation, the pellets were washed three times and incubated with the substrate solution. The absorbances were measured at 405 and 490 nm for each treatment type using SPECTRA Max M2 multichannel fluorescence plate reader (Molecular Devices, Sunnyvale, Calif.). The absorbances of the treated samples were normalized to the substrate solution."}, "VEGFR2 gene [3]": {"system": "VEGFR2 gene", "test": "Quantitative real-time PCR, VEGFR2 gene expression in A2780 cells", "assay_type": "cell-based, human", "settings": "A2780 (cisplatin-sensitive); positive = manifold increase, negative = relative decrease vs untreated cells; cisplatin 7 μM, pyrodach-4 180 μM", "description": "as §1, §2, §3, §4"}, "[4]": {"settings": "yeast deletion strains, 200 μM final concentration"}},
  "data": [
    {"smiles": "N.N.[Cl][Pt][Cl]", "note": "[Cisplatin, cisplatin, reference compound]", "values": [
      {"measurement": "Sensitivity of DNA damage/repair genes (NER, HRR, PRR)", "setting": "[1]; yeast deletion strains", "result": "induced expression of those genes related to the DNA response"},
      {"measurement": "Normalized expression of VEGFR2 gene", "setting": "VEGFR2 gene [2]", "result": 2.0},
      {"measurement": "Apoptotic cell death (ELISA absorbance)", "setting": "A2780/C30 cells", "result": "insignificant increase in absorbance"},
      {"measurement": "Normalized expression of VEGFR2 gene", "setting": "VEGFR2 gene [3]", "result": 2.5}
    ]},
    {"smiles": "NC1CCCCC1N.O=P([O-])(O)OP(=O)([O-])O.[Pt+2]", "note": "(racemic) [pyrodach-2, trans-(±)-1,2-cyclohexanediamine(pyrophosphato) platinum(II)]", "values": [
      {"measurement": "Tolerability by the yeast cell (few sensitive strains)", "setting": "[1]; highest dose possible, 200 μM final concentration", "result": "well tolerated by the cell"},
      {"measurement": "Compound-specific sensitive strain", "setting": "[1]; [4]", "result": "induced sensitivity in the strain avo2"},
      {"measurement": "Functions enriched among sensitive strains", "setting": "[1]; [4]", "result": "1) iron and copper transport and 2) metal-regulated transcription factors"},
      {"measurement": "Sensitivity of DNA damage/repair genes (NER, HRR, PRR)", "setting": "[1]; yeast deletion strains", "result": "not a single gene involved in DNA repair or other DNA metabolic processes showed any sensitivity as a mutant"}
    ]}
  ]
}
